Common to all, as to format: cell-based
Test [1] relates to log phase NDM-1 Klebsiella pneumoniae subsp. pneumoniae (BAA2472). Kind of test: chequerboard method, zidovudine and meropenem. The arrangement: scale not given here. On the procedure: The chequerboard method used in Example 1 followed the protocols detailed in Antimicrob Chemo (2013) 68, 374-384.
Log phase growth of NDM-1 Klebsiella pneumoniae subsp. pneumoniae was carried out as described in the art. Zidovudine and meropenem were obtained from commercially available sources. The effects of the combination of the present invention were examined by calculating the fractional inhibitory concentration index (FICI) of each combination, as follows:
(MIC of drug A, tested in combination)/(MIC of drug A, tested alone)+(MIC of drug B, tested in combination)/(MIC of drug B, tested alone).
The interaction of the combination was defined as showing synergy if the FICI was ≤0.5, no interaction if the FICI was >0.5 but <4.0 and antagonism if the FICI was >4.0.

The subject of test [2] is log phase NDM-1 Escherichia coli (BAA2469). Kind of test: time-kill, zidovudine and meropenem. The note with it: 24 hours. The procedure: (§1) As described hereinabove, time-kill methods are another accepted test for ascertaining the presence or absence of synergy, and involve comparing the dynamic effect of a drug combination with each drug alone when assessing the effect on bacterial log or stationary-growth over time.
(§2) • 1. Bacterial strain used: BAA2471 or BAA2469 strain of Escherichia coli • 2. Growth of bacteria: Log phase growth of BAA2471 or BAA2469 was carried out according to known methods in the art, e.g. SOP R-005-00 Log Phase Growth of Bacteria. • 3. Compound preparation: zidovudine and mereopenem were both obtained from commercial sources (e.g. Sigma-Aldrich). • 4. The overnight culture was diluted with nutrient broth (Oxoid) to 10^7 CFU/ml and 280 μl and 290 μl of the culture was added to each combination well and drug respectively, to make the final concentration of 300 μl. • 5. Incubation of the compounds with the bacterial suspension was carried out for 24 hours. At 0, 2, 4, 7 and 24 hours, CFU counts were performed to measure the kill effects of the drug combination. Results and Discussion

For test [3], the system named is log phase NDM-1 Escherichia coli (BAA2471). Kind of test: time-kill, zidovudine and meropenem. The note with it: 24 hours. The procedure: as §1, §2
The subject of test [4] is log phase NDM-1 Klebsiella pneumoniae (BAA2470). Kind of test: chequerboard method, zidovudine, meropenem and colistimethate sodium. The arrangement: chequerboard reading: scale not given here. On the procedure: The chequerboard method used in Example 1 was followed, according to the protocols detailed in Antimicrob Chemo (2013) 68, 374-384. The bacterial strain of NDM-1 Klebsiella pneumoniae was BAA2470. Log phase growth of BAA2470 was carried out as described in the art. Zidovudine, meropenem and colistimethate sodium were obtained from commercially available sources. The effects of the triple combination of the present invention were examined by calculating the MIC for each drug alone and in combination.

For test [5], the system named is log phase NDM-1 K. pneumoniae subsp. pneumoniae (BAA2470). Kind of test: time-kill, zidovudine, meropenem and CMS. On the procedure: as §2, with “BAA2470” for “BAA2471 or BAA2469”, “K. pneumoniae subsp. pneumoniae” for “Escherichia coli”, “zidovudine, mereopenem” for “zidovudine”, “colistimethate sodium” for “mereopenem”, “were” for “were both”, “combination.” for “combination. Results and Discussion”

The mark [6] stands for this setting: zidovudine added at 0.25 μg/ml to the meropenem and CMS combination.

Read-outs that look alike come from different tables or passages of the source.

Here are results for three compounds from patent US10888575B2, “Combination comprising zidovudine and a carbapenem” (HELPERBY THERAPEUTICS LIMITED, priority 2016, dated 2021).

Take `Cc1cn([C@H]2C[C@H](N=[N+]=[N-])[C@@H](CO)O2)c(=O)[nH]c1=O` [zidovudine, 1-[(2R,4S, 5S)-4-Azido-5-(hydroxymethyl)oxolan-2-yl]-5-methylpyrimidine-2,4-dione]: the chequerboard reading in test [1] (zidovudine 0.5, meropenem 0) is recorded as 0.16; in test [1] (zidovudine 1, meropenem 0), 0.22; in test [1] (zidovudine 2, meropenem 0) it was 0.10; in test [1] (zidovudine 4, meropenem 0), 0.23; in test [1] (zidovudine 8, meropenem 0), 0.23; in test [1] (zidovudine 16, meropenem 0), 0.04. Moreover, the chequerboard reading in test [1] (zidovudine 32, meropenem 0) turned out to be 0.26; in test [4] (meropenem 0, CMS 0, zidovudine 0.25 μg/ml) it was 0.31; in test [4] (meropenem 0, CMS 0, zidovudine 0.50 μg/ml) it was 0.17; in test [4] (meropenem 0, CMS 0, zidovudine 1 μg/ml), 0.11; in test [4] (meropenem 0, CMS 0, zidovudine 2 μg/ml) it was 0.08. The time-kill effect result in test [2] (zidovudine alone 16 mg/L) and in test [3] (zidovudine alone 32 mg/L) was “little or no effect” throughout. Also, the “kill of the bacterium” value in test [5] (zidovudine alone 16 μg/ml, at 2 hours, then growth occurred) is listed as “one”.

Take colistimethate sodium: the chequerboard reading is given as 0.66 in test [4] (meropenem 0, CMS 0.031, zidovudine 0 μg/ml); 0.61 in test [4] (meropenem 0, CMS 0.063, zidovudine 0 μg/ml); 0.58 in test [4] (meropenem 0, CMS 0.125, zidovudine 0 μg/ml); 0.50 in test [4] (meropenem 0, CMS 0.25, zidovudine 0 μg/ml); 0.51 in test [4] (meropenem 0, CMS 0.5, zidovudine 0 μg/ml); 0.47 in test [4] (meropenem 0, CMS 1, zidovudine 0 μg/ml). Also, the chequerboard reading in test [4] (meropenem 0, CMS 2, zidovudine 0 μg/ml) stood at 0.46; in test [4] (meropenem 0, CMS 4, zidovudine 0 μg/ml) it was 0.42; in test [4] (meropenem 0, CMS 8, zidovudine 0 μg/ml) it was 0.42; in test [4] (meropenem 0, CMS 16, zidovudine 0 μg/ml), 0.23; in test [4] (meropenem 0, CMS 32, zidovudine 0 μg/ml) it was 0.05. In addition, the minimum inhibitory concentration (MIC) – broadly, the lowest concentration that inhibits growth of the organism – in test [4] (without zidovudine) came to 32 µg/mL; in test [4] (setting [6]), 8 µg/mL; in test [4] (zidovudine added at 0.5 μg/ml to the meropenem and CMS combination), 0.5 µg/mL; in test [4] (zidovudine added at 1 μg/ml to the meropenem and CMS combination), 0.25 µg/mL. Further, the time-kill effect result in test [5] (CMS alone 4 ug/ml) is “no effect”.

As to `C[C@@H](O)[C@H]1C(=O)N2C(C(=O)O)=C(S[C@@H]3CN[C@H](C(=O)N(C)C)C3)[C@H](C)[C@H]12` [meropenem], the chequerboard reading in test [1] (zidovudine 0, meropenem 0.25) came to 0.40; in test [1] (zidovudine 0, meropenem 0.5), 0.41; in test [1] (zidovudine 0, meropenem 1) it was 0.45; in test [1] (zidovudine 0, meropenem 2), 0.35; in test [1] (zidovudine 0, meropenem 4), 0.34; in test [1] (zidovudine 0, meropenem 8) it was 0.44. Moreover, the chequerboard reading in test [1] (zidovudine 0, meropenem 16) stood at 0.44; in test [1] (zidovudine 0, meropenem 32) it was 0.25; in test [1] (zidovudine 0, meropenem 64) it was 0.21; in test [1] (zidovudine 0, meropenem 128), 0.20; in test [1] (zidovudine 0, meropenem 256), 0.05; in test [4] (meropenem 8, CMS 0, zidovudine 0 μg/ml), 0.69. Also, the chequerboard reading in test [4] (meropenem 16, CMS 0, zidovudine 0 μg/ml) is given as 0.70; in test [4] (meropenem 32, CMS 0, zidovudine 0 μg/ml), 0.63; in test [4] (meropenem 64, CMS 0, zidovudine 0 μg/ml) it was 0.55; in test [4] (meropenem 128, CMS 0, zidovudine 0 μg/ml) it was 0.36; in test [4] (meropenem 256, CMS 0, zidovudine 0 μg/ml) it was 0.05; in test [4] (meropenem 512, CMS 0, zidovudine 0 μg/ml) it was 0.05. In addition, the time-kill effect result in test [2] (meropenem alone 8 mg/L) and in test [3] (meropenem alone 256 mg/L) was “little or no effect” throughout. Moreover, the MIC in test [4] (Klebsiella pneumoniae, BAA2470) is 256 µg/mL; in test [4] (Klebsiella pneumoniae, BAA2470, zidovudine added at 0.5 μg/ml to the meropenem and CMS combination, read-out: MIC), 64 µg/mL; in test [4] (Klebsiella pneumoniae, BAA2470, zidovudine added at 1 μg/ml to the meropenem and CMS combination, read-out: MIC) it was 16 µg/mL; in test [4] (setting [6]), “remained the same”. Besides, the “kill of the bacterium” value in test [5] (meropenem alone 64 μg/ml, at 4 hours, followed by a regrowth) is “about 3 logs”.
